Measured values reported in patent US9770026B2, “Substituted pyrimidine compound and uses thereof” (Shenyang Sinochem Agrochemicals R&D Co., Ltd., priority 2012, dated 2017).

How the values were obtained:
Diamond back moth = assay: insecticidal activity against diamond back moth, airbrush spray; type: in vivo; conditions: 72 h, 600 mg/L
Experimental: (§1) Compounds were dissolved in mixed solvent (acetone:methanol=1:1), and diluted to required concentration with water containing 0.1% of tween 80.
(§2) Diamond back moth, armyworm, peach aphid and carmine spider mite were used as targets and the method of spraying by airbrush was used for determination of insecticidal biassays.
(§3) The method of spraying by airbrush: The cabbage leaves were made into plates of 2 cm diameter by use of punch. A test solution (0.5 ml) was sprayed by airbrush at the pressure of 0.7 kg/cm^2 to both sides of every plate. 10 Second instar larvae were put into the petri-dishes after the leaf disc air-dried and 3 replicates were set for each treatment. Then the insects were maintained in observation room (25° C., 60˜70% R.H.). Scores were conducted and mortalities were calculated after 72 hrs.

armyworm = assay: bioactivity test against armyworm, airbrush spray; type: in vivo; conditions: 72 h, 600 mg/L; read-out: Insecticidal activity against armyworm (%)
Experimental: as §1, §2
as §3, with “corn” for “cabbage”, “(25 °C,” for “(25° C.,”, “h.” for “hrs.”

[1] = system: Green peach aphids (Myzus Persicae Sulzer); assay: bioactivity test against green peach aphid, airbrush foliar spray; type: in vivo; conditions: Myzus persicae, foliar, 48 h, contrastive test, read-out: Insecticidal activity against peach aphid (%); for pest or weed control at 10 µg/mL: 10 mg/L; for pest or weed control at 100 µg/mL: 100 mg/L; for pest or weed control at 600 µg/mL: 600 mg/L
Summary of the method: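 Aphids (15-30 per cabbage leaf disc) on moist filter paper were airbrush-sprayed at 10 psi, 0.5 mL, with compound from acetone:methanol (1:1) diluted in water with 0.1% tween 80. Held at 25±1 C, 60±5% RH; survivors counted after 48 hrs to give death rates.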

corn rust = assay: protectant activity in vivo against corn rust; conditions: Zea mays, 168 h, protectant activity; for pest or weed control at 400 µg/mL: read-out: control effect against corn rust (%), 400 mg/L; for pest or weed control at 6.25 µg/mL: read-out: control effect against corn rust (%), 6.25 mg/L; for pest or weed control at 25 µg/mL: read-out: control effect against corn rust (%), 25 mg/L; for pest or weed control at 100 µg/mL: read-out: control effect against corn rust (%), 100 mg/L
wheat powdery mildew = assay: protectant activity in vivo against wheat powdery mildew; conditions: Triticum aestivum, 168 h, protectant activity; for pest or weed control at 6.25 µg/mL: read-out: control effect against wheat powdery mildew (%), 6.25 mg/L; for pest or weed control at 25 µg/mL: read-out: control effect against wheat powdery mildew (%), 25 mg/L; for pest or weed control at 100 µg/mL: read-out: control effect against wheat powdery mildew (%), 100 mg/L; for pest or weed control at 400 µg/mL: read-out: control effect against wheat powdery mildew (%), 400 mg/L
cucumber downy mildew = assay: protectant activity in vivo against cucumber downy mildew; conditions: Cucumis sativus, 168 h, protectant activity; for pest or weed control at 25 µg/mL: read-out: control effect against cucumber downy mildew (%), 25 mg/L; for pest or weed control at 50 µg/mL: read-out: control effect against cucumber downy mildew (%), 50 mg/L; for pest or weed control at 100 µg/mL: read-out: control effect against cucumber downy mildew (%), 100 mg/L; for pest or weed control at 400 µg/mL: read-out: control effect against cucumber downy mildew (%), 400 mg/L
carmine spider mite = assay: bioactivity test against carmine spider mite, airbrush spray; type: in vivo; conditions: Tetranychus cinnabarinus, 72 h, contrastive test, read-out: Insecticidal activity against carmine spider mite (% )
Summary of the method: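 Broadbean seedlings infested with adult mites were sprayed with compound (acetone/methanol stock diluted in 0.1% Tween 80 water) by airbrush at 0.7 kg/cm^2, 0.5 ml. Three replicates were run. Mortality was scored after 72 hrs.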

Structure (SMILES) | pest or weed control at 600 µg/mL (Diamond back moth) | pest or weed control at 600 µg/mL (armyworm) | pest or weed control at 10 µg/mL [1] | pest or weed control at 100 µg/mL [1] | pest or weed control at 600 µg/mL [1] | pest or weed control at 400 µg/mL (corn rust) | pest or weed control at 6.25 µg/mL (wheat powdery mildew) | pest or weed control at 25 µg/mL (wheat powdery mildew) | pest or weed control at 100 µg/mL (wheat powdery mildew) | pest or weed control at 400 µg/mL (wheat powdery mildew) | pest or weed control at 25 µg/mL (cucumber downy mildew) | pest or weed control at 50 µg/mL (cucumber downy mildew) | pest or weed control at 100 µg/mL (cucumber downy mildew) | pest or weed control at 400 µg/mL (cucumber downy mildew) | pest or weed control at 6.25 µg/mL (corn rust) | pest or weed control at 25 µg/mL (corn rust) | pest or weed control at 100 µg/mL (corn rust) | also measured
CCc1ncnc(NCc2ccc(Oc3ccc(C(F)(F)F)cn3)cc2)c1Cl [CK42, reference compound] | 0% | 0% | 20% | 67% | 100% | 70% | 50% | 60% | 70% | 100% | 20% | 100% | 100% | 100% | – | – | – | pest or weed control at 2.5 µg/mL ([1]; 2.5 mg/L): 0%; pest or weed control at 5 µg/mL ([1]; 5 mg/L): 17%; pest or weed control at 3.125 µg/mL (cucumber downy mildew; read-out: control effect against cucumber downy mildew (%), 3.125 mg/L): 0%; pest or weed control at 6.25 µg/mL (cucumber downy mildew; read-out: control effect against cucumber downy mildew (%), 6.25 mg/L): 0%; pest or weed control at 12.5 µg/mL (cucumber downy mildew; read-out: control effect against cucumber downy mildew (%), 12.5 mg/L): 0%
Cc1ncnc(NC(C)c2ccc(Oc3nc(Cl)c(Cl)cc3Cl)cc2)c1Cl (stereo not shown) [CK29, reference compound] | 0% | 14% | – | – | 0% | 100% | 40% | 50% | 80% | 100% | 25% | 90% | 98% | 98% | 30% | 85% | 95% | –
Cc1ncnc(NC(C)c2ccc(Oc3ccc(C(F)(F)F)cn3)cc2)c1Cl (stereo not shown) [CK28, reference compound] | 0% | 29% | 43% | 100% | 100% | 100% | – | – | – | – | 0% | 20% | 40% | 100% | 95% | 100% | 100% | pest or weed control at 10 µg/mL (carmine spider mite; 10 mg/L): 22%; pest or weed control at 100 µg/mL (carmine spider mite; 100 mg/L): 100%; pest or weed control at 600 µg/mL (carmine spider mite; 600 mg/L): 100%; pest or weed control at 0.4 µg/mL (corn rust; read-out: control effect against corn rust (%), 0.4 mg/L): 0%; pest or weed control at 1.6 µg/mL (corn rust; read-out: control effect against corn rust (%), 1.6 mg/L): 0%
